Laboratory results published in ChEMBL document CHEMBL4673355, “Thiacalixarene based quaternary ammonium salts as promising antibacterial agents” (Bioorg Med Chem, 2021).
Several values for one entry are separate records, joined by “and”; a condition that tells them apart may be missing. Equal entries are not always repeated.

Key:
Staphylococcus aureus [1] = experiment: Antibacterial activity against Staphylococcus aureus ATCC 6538 incubated for 24 hrs by CLSI broth microdilution method; assay type: functional
Escherichia coli [2] = experiment: Antibacterial activity against Escherichia coli ATCC 25922 assessed as reduction in bacterial growth incubated for 24 hrs by CLSI broth microdilution method; assay type: functional
Pseudomonas aeruginosa [3] = experiment: Antibacterial activity against Pseudomonas aeruginosa ATCC 9027 assessed as reduction in bacterial growth incubated for 24 hrs by CLSI broth microdilution method; assay type: functional
Klebsiella pneumoniae [4] = experiment: Antibacterial activity against Klebsiella pneumoniae ATCC 10031 assessed as reduction in bacterial growth incubated for 24 hrs by CLSI broth microdilution method; assay type: functional
Staphylococcus aureus [5] = experiment: Antibacterial activity against Staphylococcus aureus ATCC 29213 by CLSI broth microdilution method; assay type: functional
Escherichia coli [6] = experiment: Bactericidal activity against Escherichia coli ATCC 25922; assay type: functional
Staphylococcus aureus [7] = experiment: Bactericidal activity against Staphylococcus aureus ATCC 29213; assay type: functional
Staphylococcus aureus [8] = experiment: Bactericidal activity against Staphylococcus aureus ATCC 29213 assessed as reduction in bacterial growth incubated for 24 hrs followed by replating on MH broth and further incubated for 24 hrs by CLSI broth microdilution method; assay type: functional; settings: time 48 hrs
Pseudomonas aeruginosa [9] = experiment: Antibacterial activity against Pseudomonas aeruginosa ATCC 27853 assessed as reduction in bacterial growth incubated for 24 hrs by CLSI broth microdilution method; assay type: functional; settings: Pseudomonas aeruginosa, ATCC 27853, 24 h, read-out: MIC
[10] = Selectivity index, ratio of CC50 for human HSF cells to MIC for Bacillus subtilis 168; assay type: toxicity
[11] = tested on: Staphylococcus epidermidis; experiment: Bactericidal activity against Staphylococcus epidermidis assessed as reduction in bacterial growth incubated for 24 hrs followed by replating on MH broth and further incubated for 24 hrs by CLSI broth microdilution method; assay type: functional
[12] = Selectivity index, ratio of CC50 for human HSF cells to MIC for Staphylococcus epidermidis; assay type: toxicity; settings: for selectivity ratio: HSF cells
Bacillus subtilis = experiment: Bactericidal activity against Bacillus subtilis 168 assessed as reduction in bacterial growth incubated for 24 hrs followed by replating on MH broth and further incubated for 24 hrs by CLSI broth microdilution method; assay type: functional; settings: Bacillus subtilis, 168, 24 h
[13] = Selectivity index, ratio of CC50 for human HSF cells to MIC for Staphylococcus aureus ATCC 29213; assay type: toxicity
[14] = Antibacterial activity against […] resistant Moraxella sp.764 clinical isolate assessed as reduction in bacterial growth incubated for 24 hrs by CLSI broth microdilution method; assay type: functional; settings: Moraxella catarrhalis
Klebsiella pneumoniae [15] = experiment: Antibacterial activity against Klebsiella pneumoniae ATCC 1813 assessed as reduction in bacterial growth incubated for 24 hrs by CLSI broth microdilution method; assay type: functional
[16] = tested on: Staphylococcus haemolyticus; experiment: Antibacterial activity against methicillin- resistant Staphylococcus haemolyticus 837 assessed as reduction in bacterial growth incubated for 24 hrs by CLSI broth microdilution method; assay type: functional
Staphylococcus aureus [17] = experiment: Antibacterial activity against methicillin- resistant Staphylococcus aureus 2020 clinical isolate assessed as reduction in bacterial growth incubated for 24 hrs by CLSI broth microdilution method; assay type: functional
Staphylococcus aureus [18] = experiment: Antibacterial activity against methicillin- resistant Staphylococcus aureus 967 clinical isolate assessed as reduction in bacterial growth incubated for 24 hrs by CLSI broth microdilution method; assay type: functional
Acinetobacter [19] = experiment: Antibacterial activity against […] resistant Acinetobacter spp. clinical isolate 1 assessed as reduction in bacterial growth incubated for 24 hrs by CLSI broth microdilution method; assay type: functional
Acinetobacter [20] = experiment: Antibacterial activity against […] resistant Acinetobacter spp. clinical isolate 3 assessed as reduction in bacterial growth incubated for 24 hrs by CLSI broth microdilution method; assay type: functional
Klebsiella sp. [21] = experiment: Antibacterial activity against […] resistant Klebsiella sp. clinical isolate 11 assessed as reduction in bacterial growth incubated for 24 hrs by CLSI broth microdilution method; assay type: functional
Staphylococcus aureus [22] = experiment: Antibacterial activity against Staphylococcus aureus ATCC 29213 assessed as reduction in bacterial growth incubated for 24 hrs by CLSI broth microdilution method; assay type: functional
Proteus sp. = experiment: Antibacterial activity against […] resistant Proteus sp. clinical isolate 17 assessed as reduction in bacterial growth incubated for 24 hrs by CLSI broth microdilution method; assay type: functional; settings: Proteus sp. (in: enterobacteria)
Acinetobacter [23] = experiment: Antibacterial activity against […] resistant Acinetobacter spp. clinical isolate 5 assessed as reduction in bacterial growth incubated for 24 hrs by CLSI broth microdilution method; assay type: functional
[24] = tested on: Staphylococcus intermedius; experiment: Antibacterial activity against methicillin- resistant Staphylococcus intermedius 1143 clinical isolate assessed as reduction in bacterial growth incubated for 24 hrs by CLSI broth microdilution method; assay type: functional
Klebsiella sp. [25] = experiment: Antibacterial activity against […] resistant Klebsiella sp. clinical isolate 12 assessed as reduction in bacterial growth incubated for 24 hrs by CLSI broth microdilution method; assay type: functional
Staphylococcus aureus [26] = experiment: Antibacterial activity against methicillin- resistant Staphylococcus aureus 983 clinical isolate assessed as reduction in bacterial growth incubated for 24 hrs by CLSI broth microdilution method; assay type: functional
Staphylococcus aureus [27] = experiment: Antibacterial activity against methicillin- resistant Staphylococcus aureus 25 clinical isolate assessed as reduction in bacterial growth incubated for 24 hrs by CLSI broth microdilution method; assay type: functional
Pseudomonas = experiment: Antibacterial activity against methicillin- resistant Pseudomonas spp. clinical isolate 6 assessed as reduction in bacterial growth incubated for 24 hrs by CLSI broth microdilution method; assay type: functional
Escherichia coli [28] = experiment: Bactericidal activity against Escherichia coli ATCC 25922 assessed as reduction in bacterial growth incubated for 24 hrs followed by replating on MH broth and further incubated for 24 hrs by CLSI broth microdilution method; assay type: functional
Klebsiella pneumoniae [29] = experiment: Bactericidal activity against Klebsiella pneumoniae ATCC 1813 assessed as reduction in bacterial growth incubated for 24 hrs followed by replating on MH broth and further incubated for 24 hrs by CLSI broth microdilution method; assay type: functional
[30] = Antibacterial activity against […] resistant Moraxella sp.765 clinical isolate assessed as reduction in bacterial growth incubated for 24 hrs by CLSI broth microdilution method; assay type: functional; settings: Moraxella catarrhalis
[31] = tested on: Staphylococcus epidermidis; experiment: Antibacterial activity against Staphylococcus epidermidis assessed as reduction in bacterial growth incubated for 24 hrs by CLSI broth microdilution method; assay type: functional
[32] = Antibacterial activity against […] resistant Moraxella sp.829 clinical isolate assessed as reduction in bacterial growth incubated for 24 hrs by CLSI broth microdilution method; assay type: functional; settings: Moraxella catarrhalis
[33] = Escherichia coli, ATCC 25922, 24 h, read-out: MIC
[34] = Staphylococcus aureus, ATCC 29213, read-out: MBC
[35] = Staphylococcus epidermidis, read-out: MBC

CCCCCCCCOc1c2cc(C[n+]3ccn(C)c3)cc1Cc1cc(C[n+]3ccn(C)c3)cc(c1OCCCCCCCC)Cc1cc(C[n+]3ccn(C)c3)cc(c1OCCCCCCCC)Cc1cc(C[n+]3ccn(C)c3)cc(c1OCCCCCCCC)C2.[Cl-].[Cl-].[Cl-].[Cl-]
MIC (Staphylococcus aureus [1]): > 1000 µg/mL
MIC (Escherichia coli [2]; [33]): 1000 µg/mL
MIC (Pseudomonas aeruginosa [3]): 500 µg/mL
MIC (Klebsiella pneumoniae [4]): > 1000 µg/mL

CCCOc1c2cc(C[N+](C)(C)C)cc1Cc1cc(C[N+](C)(C)C)cc(c1OCCC)Cc1cc(C[N+](C)(C)C)cc(c1OCCC)Cc1cc(C[N+](C)(C)C)cc(c1OCCC)C2.[Cl-].[Cl-].[Cl-].[Cl-]
MIC (Escherichia coli [2]; [33]): 16 µg/mL
MIC (Staphylococcus aureus [5]): 16 µg/mL
MBC (Escherichia coli [6]): 16 µg/mL
MBC (Staphylococcus aureus [7]): 16 µg/mL

CCCCCCCCOc1c2cc(C[N+](C)(C)CCN)cc1Cc1cc(C[N+](C)(C)CCN)cc(c1OCCCCCCCC)Cc1cc(C[N+](C)(C)CCN)cc(c1OCCCCCCCC)Cc1cc(C[N+](C)(C)CCN)cc(c1OCCCCCCCC)C2.[Cl-].[Cl-].[Cl-].[Cl-]
MIC (Staphylococcus aureus [1]): > 1000 µg/mL
MIC (Escherichia coli [2]; [33]): > 1000 µg/mL
MIC (Pseudomonas aeruginosa [3]): > 1000 µg/mL
MIC (Klebsiella pneumoniae [4]): > 1000 µg/mL

CCCOc1c2cc(C[N+](C)(C)CCO)cc1Cc1cc(C[N+](C)(C)CCO)cc(c1OCCC)Cc1cc(C[N+](C)(C)CCO)cc(c1OCCC)Cc1cc(C[N+](C)(C)CCO)cc(c1OCCC)C2.[Cl-].[Cl-].[Cl-].[Cl-]
MIC (Staphylococcus aureus [1]): ≤ 10 µg/mL
MIC (Escherichia coli [2]; [33]): 32 µg/mL
MIC (Pseudomonas aeruginosa [3]): 1000 µg/mL
MIC (Staphylococcus aureus [5]): 16 µg/mL
MIC (Klebsiella pneumoniae [4]): 100 µg/mL
MBC (Escherichia coli [6]): 256 µg/mL
MBC (Staphylococcus aureus [7]): 16 µg/mL

CCCOc1c2cc(C[n+]3ccn(C)c3)cc1Cc1cc(C[n+]3ccn(C)c3)cc(c1OCCC)Cc1cc(C[n+]3ccn(C)c3)cc(c1OCCC)Cc1cc(C[n+]3ccn(C)c3)cc(c1OCCC)C2.[Cl-].[Cl-].[Cl-].[Cl-]
MIC (Staphylococcus aureus [1]): ≤ 10 µg/mL
MIC (Escherichia coli [2]; [33]): ≤ 10 µg/mL
MIC (Pseudomonas aeruginosa [3]): 50 µg/mL
MIC (Klebsiella pneumoniae [4]): ≤ 10 µg/mL

CC(C)(C)c1cc2c(OCC(=O)NCCC[N+](C)(C)C)c(c1)Sc1cc(C(C)(C)C)cc(c1OCC(=O)NCCC[N+](C)(C)C)Sc1cc(C(C)(C)C)cc(c1OCC(=O)NCCC[N+](C)(C)C)Sc1cc(C(C)(C)C)cc(c1OCC(=O)NCCC[N+](C)(C)C)S2.[Cl-].[Cl-].[Cl-].[Cl-]
MBC (Staphylococcus aureus [8]; [34]): > 64 µg/mL
MIC (Escherichia coli [2]; [33]): > 64 µg/mL
MIC (Pseudomonas aeruginosa [9]): > 64 µg/mL
Ratio [10]: > 16 and 43
MBC [11, 35]: 32 µg/mL
Ratio [12]: 11
selectivity ratio [12]: > 16
MBC (Bacillus subtilis): 8 µg/mL

CCCC[N+](C)(C)CCCNC(=O)COc1c2cc(C(C)(C)C)cc1Sc1cc(C(C)(C)C)cc(c1OCC(=O)NCCC[N+](C)(C)CCCC)Sc1cc(C(C)(C)C)cc(c1OCC(=O)NCCC[N+](C)(C)CCCC)Sc1cc(C(C)(C)C)cc(c1OCC(=O)NCCC[N+](C)(C)CCCC)S2.[Cl-].[Cl-].[Cl-].[Cl-]
MBC (Staphylococcus aureus [8]; [34]): 16 µg/mL
Ratio [13]: 19
selectivity ratio ([13]; HSF cells): 11
MIC (Escherichia coli [2]; 24 h): 64 µg/mL
MIC (Escherichia coli [2]; [33]): > 64 µg/mL
MIC (Pseudomonas aeruginosa [9]): > 64 µg/mL
Ratio [10]: 23 and 9
MBC [11, 35]: 8 µg/mL
Ratio [12]: 19
selectivity ratio [12]: 11
MBC (Bacillus subtilis): 16 µg/mL

CC(C)(C)c1cc2c(OCC(=O)NCCC[N+](C)(C)Cc3ccccc3)c(c1)Sc1cc(C(C)(C)C)cc(c1OCC(=O)NCCC[N+](C)(C)Cc1ccccc1)Sc1cc(C(C)(C)C)cc(c1OCC(=O)NCCC[N+](C)(C)Cc1ccccc1)Sc1cc(C(C)(C)C)cc(c1OCC(=O)NCCC[N+](C)(C)Cc1ccccc1)S2.[Cl-].[Cl-].[Cl-].[Cl-]
MBC (Staphylococcus aureus [8]; [34]): 64 µg/mL
MBC (Staphylococcus aureus [8]): 64 µg/mL
MIC [14]: 64 µg/mL
MIC (Klebsiella pneumoniae [15]; 24 h): >64 µg/mL
MIC (Klebsiella pneumoniae [15]; Klebsiella pneumoniae, ATCC 1813, 24 h, read-out: MIC): 32 µg/mL
MIC [16]: 64 µg/mL
MIC (Staphylococcus aureus [17]): 64 µg/mL
MIC (Staphylococcus aureus [18]): 64 µg/mL
MIC (Acinetobacter [19]): 64 µg/mL
MIC (Escherichia coli [2]; 24 h): 32 µg/mL
MIC (Escherichia coli [2]; [33]): > 64 µg/mL
MIC (Pseudomonas aeruginosa [9]): > 64 µg/mL
MIC (Acinetobacter [20]): 64 µg/mL
MIC (Klebsiella sp. [21]): > 64 µg/mL
MIC (Staphylococcus aureus [22]): 4 µg/mL
MIC (Staphylococcus aureus [22]; Staphylococcus aureus, ATCC 29213, 24 h, read-out: MIC): 4 µg/mL
MIC (Proteus sp.): > 64 µg/mL
MIC (Acinetobacter [23]): 64 µg/mL
MIC [24]: 16 µg/mL
MIC (Klebsiella sp. [25]): 64 µg/mL
MIC (Staphylococcus aureus [26]): 64 µg/mL
MBC [11]: 16 µg/mL
MBC [11, 35]: 32 µg/mL
MIC (Staphylococcus aureus [27]): 16 µg/mL
MIC (Pseudomonas): 64 µg/mL
MBC (Escherichia coli [28]): 64 µg/mL
MBC (Klebsiella pneumoniae [29]): 32 µg/mL
MIC [30]: 64 µg/mL
MIC [31]: 2 µg/mL
MIC ([31]; Staphylococcus epidermidis, read-out: MIC): 4 µg/mL
MIC [32]: 64 µg/mL

CCCCCCCCOc1c2cc(C[N+](C)(C)CCO)cc1Cc1cc(C[N+](C)(C)CCO)cc(c1OCCCCCCCC)Cc1cc(C[N+](C)(C)CCO)cc(c1OCCCCCCCC)Cc1cc(C[N+](C)(C)CCO)cc(c1OCCCCCCCC)C2.[Cl-].[Cl-].[Cl-].[Cl-]
MIC (Staphylococcus aureus [1]): > 1000 µg/mL
MIC (Escherichia coli [2]; [33]): 32 µg/mL
MIC (Pseudomonas aeruginosa [3]): 500 µg/mL
MIC (Staphylococcus aureus [5]): 16 µg/mL
MIC (Klebsiella pneumoniae [4]): > 1000 µg/mL
MBC (Escherichia coli [6]): 256 µg/mL
MBC (Staphylococcus aureus [7]): 16 µg/mL

CCCOc1c2cc(C[N+](C)(C)CCN)cc1Cc1cc(C[N+](C)(C)CCN)cc(c1OCCC)Cc1cc(C[N+](C)(C)CCN)cc(c1OCCC)Cc1cc(C[N+](C)(C)CCN)cc(c1OCCC)C2.[Cl-].[Cl-].[Cl-].[Cl-]
MIC (Staphylococcus aureus [1]): ≤ 10 µg/mL
MIC (Escherichia coli [2]; [33]): 500 µg/mL
MIC (Pseudomonas aeruginosa [3]): 50 µg/mL
MIC (Klebsiella pneumoniae [4]): 500 µg/mL
